Test results as given in patent US4511574A, “N-(4-Phenyl-2-thiazolyl)carbamate derivatives” (Mitsui Toatsu Kagaku Kabushiki Kaisha, priority 1981, dated 1985).
Where a name gives a salt, the structure may show the parent alone.

Key:
[1] = test system: delayed hypersensitivity induced by picryl chloride; assay: Reinforcement test of delayed hypersensitivity (picryl chloride); type: in vivo, ICR male mice; details: 50 mg/Kg oral, simultaneously with sensitization; 24 hours after challenging; average of both pinnae of eight mice; * P<0.05, ** P<0.01 vs control
Description: This feature will hereinafter be described by way of test examples. Various test systems using animals have been routinely adopted for the determination of immunomodulating activity.
The delayed hypersensitivity induced on a mouse when picryl chloride(2-chloro-1,3,5-trinitrobenzene) is applied onto the skin of the mouse is known as a typical cellular immunity.
This test system was used for the reinforcement tests of the delayed hypersensitivity.
Groups of eight ICR male mice, each having a body weight of about 30 g or so, were used for the test.
Sensitization was effected by applying a 3% solution of picryl chloride in a 4/1 mixture of olive oil and acetone onto the shaved abdomen of each of the mice.
Simultaneously with the sensitization, a solution or suspension of a compound according to this invention dissolved or suspended in a 0.2% solution of carboxymethyl cellulose in a physiological saline was orally administered to the mouse at a dose of 50 mg per Kg of its body weight. To each mouse of a control group, a 0.2% carboxymethylcellulose solution in a physiological saline was similarly administered.
The delayed hypersensitivity was induced 7 days after the sensitization by pinching each of the pinnae of each mouse with a pair of forceps whose tip portions were wrapped with a felt impregnated with a 1% solution of picryl chloride in olive oil and coating the pinnae with the solution. The thickness of each pinna was measured before the challenging and 24 hours after the challenging and the ratio of increase of the thickness (average value of both of the pinnae of the eight mice) is shown in Table 1.
For comparison, a similar test was carried out using Levamisole hydrochloride.
F.t tests were carried out on the thus-obtained test results.

[2] = test system: adjuvant arthritis (Mycobacterium tuberculosis adjuvant); assay: Adjuvant arthritis test; type: in vivo, SD male rats; details: 5 mg/Kg subcutaneous, 9 times; left hind leg; average value from 16th to 20th days; * P<0.05, ** P<0.01, *** P<0.001 vs control
Description: Next, a result of tests made on immuno-modulating activity in the adjuvant arthritis test is shown.
The adjuvant arthritis in rats caused by the injection of a Mycobacterium tuberculosis adjuvant is often utilized for a model test of chronic rheumatoid arthritis in the human.
The mechanism of manifestation of this disease has not completely been elucidated, but it is known that the cellular immunity plays an important role. The immuno-modulating activity of the compounds according to this invention was investigated in accordance with this known adjuvant arthritis test.
8-Week-old SD male rats were used for the test. In 0.1 ml of fluid paraffin, 0.4 mg of dry dead cells of Mycobacterium tuberculosis were suspended, and the suspension was injected under the heel skin of the right hind leg of each rat. Each of the compounds according to this invention was subcutaneously administered 9 times in total before and after the injection of the adjuvant. Each of the compounds of the present invention was dissolved or suspended in a 0.2% solution of carboxymethylcellulose in physiological saline and administered to each rat at a dose of 5 mg per Kg of the body weight. The swollen volume of the left hind leg was measured during the period extending from the day of injection to the day of completion of the test, and the swelling ratio was calculated. For comparison, a similar test was conducted using Levamisole hydrochloride. F.t tests were carried out on the test results obtained.

ddY male mice = assay: Acute toxicity test through oral administration; type: in vivo; details: five ddY male mice per group, watched 7 days
Description: TEST EXAMPLE 3 (ACUTE TOXICITY TEST THROUGH ORAL ADMINISTRATION)
Test Procedures: To each of a group of five ddY male mice, was orally administered a medicine dissolved or suspended in physiological saline. They were watched for 7 days after the administration and an estimated LD50 value was obtained.

SMILES: CS(=O)(=O)c1ccc(-c2csc(NC(=O)OCC(Cl)(Cl)Cl)n2)cc1 [drawing 6]
- Ratio of Increase of Pinna Thickness [1]: 37.8%

SMILES: CCOC(=O)Nc1nc(-c2ccc([N+](=O)[O-])cc2)cs1 [drawing 11]
- Swell suppression ratio to control group [2]: 71.4%

SMILES: CCOC(=O)Nc1nc(-c2ccc(S(C)(=O)=O)cc2)cs1 [drawing 8]
- Ratio of Increase of Pinna Thickness [1]: 36.0%

SMILES: CCOC(=O)Nc1nc(-c2ccc(S(C)(=O)=O)cc2)cs1 [drawing 12]
- Swell suppression ratio to control group [2]: 47.6%

SMILES: c1ccc([C@H]2CN3CCSC3=N2)cc1 [Levamisole.HCl, Levamisole hydrochloride, reference compound]
- Ratio of Increase of Pinna Thickness [1]: 31.2%
- estimated LD50 value (ddY male mice): 200 to 300 mg/kg
- Swell suppression ratio to control group [2]: 19.8%

SMILES: O=C(Nc1nc(-c2ccc([N+](=O)[O-])cc2)cs1)OCC(Cl)(Cl)Cl [drawing 9]
- Swell suppression ratio to control group [2]: 45.0%

SMILES: O=C(Nc1nc(-c2ccc([N+](=O)[O-])cc2)cs1)OCC(Cl)(Cl)Cl [drawing 5]
- Ratio of Increase of Pinna Thickness [1]: 36.1%

SMILES: CCOC(=O)Nc1nc(-c2ccc([N+](=O)[O-])cc2)cs1 [drawing 7]
- Ratio of Increase of Pinna Thickness [1]: 34.8%

SMILES: CS(=O)(=O)c1ccc(-c2csc(NC(=O)OCC(Cl)(Cl)Cl)n2)cc1 [drawing 10]
- Swell suppression ratio to control group [2]: 30.0%
